According to US20180000089A1, “NOVEL MICROBIOCIDES” (Syngenta Participations AG, priority 2015, published 2018):

Tests used:
[1] = system: Botryotinia fuckeliana (Botrytis cinerea); experiment: Botryotinia fuckeliana (Botrytis cinerea) / liquid culture (gray mould); assay type: cell-based; conditions: Vogels broth, 24° C., inhibition of growth determined photometrically 3-4 days after application, read-out: disease control
Protocol: (§1) 9 Botryotinia fuckeliana (Botrytis cinerea)/liquid culture (Gray mould): Conidia of the fungus from cryogenic storage were directly mixed into nutrient broth (Vogels broth). After placing a DMSO solution of test compound into a 96-well microtiter plate at an application rate of 200 ppm, the nutrient broth containing the fungal spores was added. The test plates were incubated at 24° C. and the inhibition of growth was determined photometrically 3-4 days after application.

[2] = system: Monographella nivalis (Microdochium nivale); experiment: Monographella nivalis (Microdochium nivale) / liquid culture (foot rot cereals); assay type: cell-based; conditions: PDB, 24° C., inhibition of growth determined photometrically 4-5 days after application, read-out: disease control
Protocol: as §1, with “14 Monographella nivalis (Microdochium nivale)/liquid” for “9 Botryotinia fuckeliana (Botrytis cinerea)/liquid”, “(foot rot cereals):” for “(Gray mould):”, “(PDB potato dextrose” for “(Vogels”, “4-5” for “3-4”

Pythium ultimum = Pythium ultimum / liquid culture (seedling damping off); assay type: cell-based; conditions: Globisporangium ultimum, potato dextrose broth, 24° C., inhibition of growth determined photometrically 2-3 days after application, read-out: disease control
Protocol: 8 Pythium ultimum/Liquid Culture (Seedling Damping Off) Mycelia fragments and oospores of a newly grown liquid culture of the fungus were directly mixed into nutrient broth (potato dextrose broth). After placing a DMSO solution of test compound into a 96-well format microtiter plate at an application rate of 200 ppm, the nutrient broth containing the fungal mycelia/spore mixture was added. The test plates were incubated at 24° C. and the inhibition of growth was determined photometrically 2-3 days after application.

[3] = system: Mycosphaerella graminicola (Septoria tritici); experiment: Mycosphaerella graminicola (Septoria tritici) / liquid culture (Septoria blotch); assay type: cell-based; conditions: Zymoseptoria tritici, PDB, 24° C., inhibition of growth determined photometrically 4-5 days after application, read-out: disease control
Protocol: as §1, with “12 Mycosphaerella graminicola (Septoria tritici)/Liquid Culture (Septoria Blotch):” for “9 Botryotinia fuckeliana (Botrytis cinerea)/liquid culture (Gray mould):”, “(PDB potato dextrose” for “(Vogels”, “4-5” for “3-4”

Fusarium culmorum = experiment: microbe, parasite or virus in culture; assay type: cell-based; conditions: read-out: disease control
Plasmopara viticola = experiment: whole plant or invertebrate; assay type: in vivo; conditions: foliar, read-out: disease control
[4] = system: Mycosphaerella arachidis (Cercospora arachidicola); experiment: Mycosphaerella arachidis (Cercospora arachidicola) / liquid culture (early leaf spot); assay type: cell-based; conditions: PDB, 24° C., inhibition of growth determined photometrically 4-5 days after application, read-out: disease control
Protocol: as §1, with “11 Mycosphaerella arachidis (Cercospora arachidicola)/Liquid Culture (Early Leaf Spot):” for “9 Botryotinia fuckeliana (Botrytis cinerea)/liquid culture (Gray mould):”, “(PDB potato dextrose” for “(Vogels”, “4-5” for “3-4”

Sclerotinia sclerotiorum = Sclerotinia sclerotiorum / liquid culture (cottony rot); assay type: cell-based; conditions: PDB, 24° C., inhibition of growth determined visually 3-4 days after application, read-out: disease control
Protocol: 17 Sclerotinia sclerotiorum/liquid culture (cottony rot): Mycelia fragments of a newly grown liquid culture of the fungus were directly mixed into nutrient broth (PDB potato dextrose broth). After placing a (DMSO) solution of the test compounds into a microtiter plate (96-well format) the nutrient broth containing the fungal material was added. The test plates were incubated at 24° C. and the inhibition of growth was determined visually 3-4 days after application.

[5] = system: Glomerella lagenarium (Colletotrichum Lagenarium); experiment: Glomerella lagenarium (Colletotrichum lagenarium) / liquid culture (anthracnose); assay type: cell-based; conditions: Colletotrichum orbiculare, PDB, 24° C., inhibition of growth measured photometrically 3-4 days after application, read-out: disease control
Protocol: as §1, with “10 Glomerella lagenarium (Colletotrichum Lagenarium)/Liquid Culture (Anthracnose):” for “9 Botryotinia fuckeliana (Botrytis cinerea)/liquid culture (Gray mould):”, “(PDB potato dextrose” for “(Vogels”, “measured” for “determined”

[6] = system: Thanatephorus cucumeris (Rhizoctonia solani); experiment: Thanatephorus cucumeris (Rhizoctonia solani) / liquid culture (foot rot, damping-off); assay type: cell-based; conditions: PDB, 24° C., inhibition of growth determined photometrically 3-4 days after application, read-out: disease control
Protocol: 16 Thanatephorus cucumeris (Rhizoctonia solani)/liquid culture (foot rot, damping-off): Mycelia fragments of a newly grown liquid culture of the fungus were directly mixed into nutrient broth (PDB potato dextrose broth). After placing a DMSO solution of the test compounds into a 96-well microtiter plate at an application rate of 200 ppm, the nutrient broth containing the fungal material was added. The test plates were incubated at 24° C. and the inhibition of growth was determined photometrically 3-4 days after application.

Gaeumannomyces Graminis = experiment: Gaeumannomyces graminis / liquid culture (take-all of cereals); assay type: cell-based; conditions: PDB, 24° C., inhibition of growth determined photometrically 4-5 days after application, read-out: disease control
Protocol: 13 Gaeumannomyces Graminis/Liquid Culture (Take-all of Cereals): Mycelial fragments of the fungus from cryogenic storage were directly mixed into nutrient broth (PDB potato dextrose broth). […] The test plates were incubated at 24° C. and the inhibition of growth was determined photometrically 4-5 days after application.

Cc1cc(C2CC2)nc(Nc2ccccc2-c2cc3c(cc2Cl)COB3O)n1 [Compound 22]
inhibition of growth at 200 ppm [1]: ≥ 80% | inhibition of growth at 200 ppm [2]: ≥ 80%

CC(=O)Nc1ccc(F)cc1-c1cc2c(cc1Cl)COB2O [Compound 19, N-[2-(5-chloro-1-hydroxy-3H-2,1-benzoxaborol-6-yl)-4-fluoro-phenyl]acetamide]
inhibition of growth at 200 ppm (Pythium ultimum): ≥ 80% | inhibition of growth at 200 ppm [3]: ≥ 80% | inhibition of growth at 200 ppm (Fusarium culmorum): ≥ 80%

COc1ccccc1-c1cc2c(cc1F)COB2O [Compound 25]
pest or weed control at 200 ppm (Plasmopara viticola): ≥ 80% | inhibition of growth at 200 ppm [4]: ≥ 80% | inhibition of growth at 200 ppm (Pythium ultimum): ≥ 80% | inhibition of growth at 200 ppm (Sclerotinia sclerotiorum): ≥ 80% | inhibition of growth at 200 ppm [3]: ≥ 80% | melting point: 50 to 65 °C | inhibition of growth at 200 ppm (Fusarium culmorum): ≥ 80% | inhibition of growth at 200 ppm [2]: ≥ 80% | inhibition of growth at 200 ppm [5]: ≥ 80%

COc1cccc(-c2cc3c(cc2F)COB3O)c1 [Compound 27, 5-fluoro-6-(3-methoxy-phenyl)-3H-benzo[c][1,2] oxaborol-1-ol]
pest or weed control at 200 ppm (Plasmopara viticola): ≥ 80% | inhibition of growth at 200 ppm [4]: ≥ 80% | inhibition of growth at 200 ppm (Pythium ultimum): ≥ 80% | inhibition of growth at 200 ppm (Sclerotinia sclerotiorum): ≥ 80% | inhibition of growth at 200 ppm [3]: ≥ 80% | melting point: 118 to 120 °C | inhibition of growth at 200 ppm (Fusarium culmorum): ≥ 80% | inhibition of growth at 200 ppm [2]: ≥ 80% | inhibition of growth at 200 ppm [5]: ≥ 80%

Cc1cccc(-c2cc3c(cc2Cl)COB3O)c1 [Compound 5]
inhibition of growth at 200 ppm [6]: ≥ 80% | inhibition of growth at 200 ppm (Pythium ultimum): ≥ 80% | inhibition of growth at 200 ppm [3]: ≥ 80% | inhibition of growth at 200 ppm (Fusarium culmorum): ≥ 80% | inhibition of growth at 200 ppm [5]: ≥ 80%

Cc1ccccc1-c1cc2c(cc1Cl)COB2O [Compound 4]
pest or weed control at 200 ppm (Plasmopara viticola): ≥ 80% | inhibition of growth at 200 ppm [6]: ≥ 80% | inhibition of growth at 200 ppm (Pythium ultimum): ≥ 80% | inhibition of growth at 200 ppm [3]: ≥ 80% | inhibition of growth at 200 ppm [5]: ≥ 80%

Cc1ccc(-c2cc3c(cc2Cl)COB3O)cc1 [Compound 6]
inhibition of growth at 200 ppm [6]: ≥ 80% | inhibition of growth at 200 ppm (Pythium ultimum): ≥ 80% | inhibition of growth at 200 ppm [3]: ≥ 80% | inhibition of growth at 200 ppm (Fusarium culmorum): ≥ 80% | inhibition of growth at 200 ppm [5]: ≥ 80%

COC(=O)c1cc(-c2cc3c(cc2Cl)COB3O)ccc1OC [Compound 30]
inhibition of growth at 200 ppm (Pythium ultimum): ≥ 80% | inhibition of growth at 200 ppm [2]: ≥ 80%

OB1OCc2cc(Cl)c(-c3cccc4ncoc34)cc21 [Compound 16]
inhibition of growth at 200 ppm (Gaeumannomyces Graminis): ≥ 80% | inhibition of growth at 200 ppm (Pythium ultimum): ≥ 80% | inhibition of growth at 200 ppm [3]: ≥ 80% | inhibition of growth at 200 ppm [2]: ≥ 80% | inhibition of growth at 200 ppm [5]: ≥ 80%

COc1ccc(-c2cc3c(cc2Cl)COB3O)cc1 [Compound 8, 5-chloro-1-hydroxy-6-(4-methoxyphenyl)-3H-2,1-benzoxaborole]
inhibition of growth at 200 ppm (Gaeumannomyces Graminis): ≥ 80% | inhibition of growth at 200 ppm [6]: ≥ 80% | inhibition of growth at 200 ppm (Pythium ultimum): ≥ 80% | inhibition of growth at 200 ppm [3]: ≥ 80% | melting point: 105 to 115 °C | inhibition of growth at 200 ppm [2]: ≥ 80% | inhibition of growth at 200 ppm [5]: ≥ 80%

Cc1cc(C2CC2)nc(Nc2ccc(-c3cc4c(cc3Cl)COB4O)cc2)n1 [Compound 24]
inhibition of growth at 200 ppm [2]: ≥ 80%

Cc1ccc(-c2cc3c(cc2Cl)COB3O)cc1C [Compound 2]
inhibition of growth at 200 ppm (Gaeumannomyces Graminis): ≥ 80% | inhibition of growth at 200 ppm (Pythium ultimum): ≥ 80% | inhibition of growth at 200 ppm [3]: ≥ 80% | melting point: 155 to 165 °C | inhibition of growth at 200 ppm [5]: ≥ 80%

OB1OCc2cc(F)c(-c3ccc(Cl)c(Cl)c3)cc21 [Compound 34]
melting point: 243 to 245 °C

OB1OCc2cc(Cl)c(-c3cc(Br)ccc3-n3cccn3)cc21 [Compound 17]
inhibition of growth at 200 ppm (Gaeumannomyces Graminis): ≥ 80% | inhibition of growth at 200 ppm (Pythium ultimum): ≥ 80% | inhibition of growth at 200 ppm [3]: ≥ 80% | inhibition of growth at 200 ppm [2]: ≥ 80% | inhibition of growth at 200 ppm [5]: ≥ 80%

Cc1nc2cccc(-c3cc4c(cc3Cl)COB4O)c2s1 [Compound 15, 7-(5-chloro-1-hydroxy-3H-2,1-benzoxaborol-6-yl)-2-methyl-1,3-benzothiazole]
pest or weed control at 200 ppm (Plasmopara viticola): ≥ 80% | inhibition of growth at 200 ppm (Pythium ultimum): ≥ 80% | inhibition of growth at 200 ppm [2]: ≥ 80%

Cc1cc(C2CC2)nc(Nc2cccc(-c3cc4c(cc3Cl)COB4O)c2)n1 [Compound 23]
inhibition of growth at 200 ppm [2]: ≥ 80%

Cc1nc2c(-c3cc4c(cc3Cl)COB4O)cccc2s1 [Compound 13, 4-(5-chloro-1-hydroxy-3H-2,1-benzoxaborol-6-yl)-2-methyl-1,3-benzothiazole]
inhibition of growth at 200 ppm (Gaeumannomyces Graminis): ≥ 80% | inhibition of growth at 200 ppm (Pythium ultimum): ≥ 80% | inhibition of growth at 200 ppm [3]: ≥ 80% | inhibition of growth at 200 ppm [2]: ≥ 80% | inhibition of growth at 200 ppm [5]: ≥ 80%

OB1OCc2cc(Cl)c(-c3cccc4[nH]c(-c5cscn5)nc34)cc21 [Compound 21]
inhibition of growth at 200 ppm [1]: ≥ 80% | inhibition of growth at 200 ppm [4]: ≥ 80% | inhibition of growth at 200 ppm (Pythium ultimum): ≥ 80%

COc1ccc(OC)c(-c2cc3c(cc2Cl)COB3O)c1 [Compound 12]
pest or weed control at 200 ppm (Plasmopara viticola): ≥ 80% | inhibition of growth at 200 ppm (Gaeumannomyces Graminis): ≥ 80% | inhibition of growth at 200 ppm (Pythium ultimum): ≥ 80% | inhibition of growth at 200 ppm [3]: ≥ 80% | melting point: 95 to 115 °C | inhibition of growth at 200 ppm [2]: ≥ 80% | inhibition of growth at 200 ppm [5]: ≥ 80%

COc1ccc(-c2cc3c(cc2F)COB3O)cc1 [Compound 26]
inhibition of growth at 200 ppm (Pythium ultimum): ≥ 80% | inhibition of growth at 200 ppm [3]: ≥ 80% | inhibition of growth at 200 ppm (Fusarium culmorum): ≥ 80% | inhibition of growth at 200 ppm [2]: ≥ 80% | inhibition of growth at 200 ppm [5]: ≥ 80%

OB1OCc2cc(Cl)c(-c3cc(-n4cccn4)ccc3Br)cc21 [Compound 18]
inhibition of growth at 200 ppm (Gaeumannomyces Graminis): ≥ 80% | inhibition of growth at 200 ppm (Pythium ultimum): ≥ 80% | inhibition of growth at 200 ppm [3]: ≥ 80% | inhibition of growth at 200 ppm [2]: ≥ 80% | inhibition of growth at 200 ppm [5]: ≥ 80%

OB1OCc2cc(Cl)c(-c3ccc(O)cc3)cc21 [Compound 11]
pest or weed control at 200 ppm (Plasmopara viticola): ≥ 80% | inhibition of growth at 200 ppm (Pythium ultimum): ≥ 80% | inhibition of growth at 200 ppm [2]: ≥ 80%

N#Cc1ccc(-c2cc3c(cc2F)COB3O)cc1 [Compound 29]
inhibition of growth at 200 ppm (Pythium ultimum): ≥ 80% | melting point: 270 to 272 °C | inhibition of growth at 200 ppm [2]: ≥ 80%

Cc1nc2cc(-c3cc4c(cc3Cl)COB4O)ccc2s1 [Compound 14, 5-(5-chloro-1-hydroxy-3H-2,1-benzoxaborol-6-yl)-2-methyl-1,3-benzothiazole]
pest or weed control at 200 ppm (Plasmopara viticola): ≥ 80% | inhibition of growth at 200 ppm (Pythium ultimum): ≥ 80% | inhibition of growth at 200 ppm [2]: ≥ 80%

CC(=O)Nc1ccc(F)c(-c2cc3c(cc2Cl)COB3O)c1 [Compound 20, N-[3-(5-chloro-1-hydroxy-3H-2,1-benzoxaborol-6-yl)-4-fluoro-phenyl]acetamide]
inhibition of growth at 200 ppm [1]: ≥ 80% | inhibition of growth at 200 ppm [4]: ≥ 80% | inhibition of growth at 200 ppm (Gaeumannomyces Graminis): ≥ 80% | inhibition of growth at 200 ppm (Pythium ultimum): ≥ 80% | inhibition of growth at 200 ppm (Sclerotinia sclerotiorum): ≥ 80% | inhibition of growth at 200 ppm [3]: ≥ 80% | inhibition of growth at 200 ppm (Fusarium culmorum): ≥ 80% | inhibition of growth at 200 ppm [2]: ≥ 80% | inhibition of growth at 200 ppm [5]: ≥ 80%
